How the values were obtained:
[1] = test system: HeEB1 cells; assay: mRNA expression of cell cycle arrest- and apoptosis-related genes by real-time PCR; assay type: cell-based, human; settings: 25 μM, 3 days
Description: (§1) In order to elucidate the mechanism of the cell proliferation suppressive effect by CCC020-TPP administration, expression analysis at the mRNA level was conducted by real-time PCR. The mtDNA mutation cell line (3243G High) and the normal cell line (HeEB1) were inoculated at 5×10^5 cells/dish and 1×10^5 cells/dish, respectively, to 6 cm dishes (Falcon), cultured for 24 hours, and then treated with CCC020-TPP (final concentration: 25 μM). After further culture for 3 days, RNA was extracted using RNeasy Plus Mini Kit (QIAGEN) according to the instruction manual. The yield of the RNA thus extracted was measured using NANO DROP 2000™ (Thermo Fisher Scientific). The reverse-transcription reaction of RNA was performed with 500 ng of RNA per sample using SuperScript VILO Master Mix (Invitrogen) to synthesize cDNA. The synthesized cDNA was diluted 5-fold with ultrapure water.
(§2) Real-time PCR employed Power SYBR Green Master Mix (Applied Biosystems), and cDNA sample preparation, PCR reaction and analysis were conducted. The primers and reaction conditions used are shown below.
(§3) The PCR reaction conditions were as follows.

[2] = test system: 3243G High cells; assay: as above; assay type: cell-based, human; settings: 25 μM, 3 days
Description: as §1, §2, §3

[3] = test system: 3243G High cells; assay: Cell death induction: DAPI nuclear staining and cleaved caspase-3 immunostaining; assay type: cell-based, human; settings: 25 μM, 5 days
Description: In order to confirm that the suppression of cell proliferation by CCC020-TPP was the induction of cell death, the 3243G High cells were inoculated at 5×10^4 cells/dish to a 35 mm glass base dish (IWAKI), cultured for 24 hours, and then treated with CCC020-TPP (final concentration: 25 μM). The cells thus supplemented with CCC020-TPP were further cultured for 5 days and fixed with 4% PFA/PBS at room temperature for 30 minutes. The cells thus fixed were washed with PBS and blocked with TBST containing 5% normal goat serum for 1 hour. After the completion of blocking, the cells were reacted for 1 hour with a primary antibody diluted with TBST, i.e., a rabbit anti-cleaved caspase-3 antibody (for the cells treated for 5 days: Cell Signaling Technology, Inc.) diluted at 1:200.

[4] = test system: 3243G High cells; assay: WST assay of cell proliferation with morphological observation; assay type: cell-based, human; settings: 5 days
Description: (§4) The proliferation suppressive effect of CCC020-TPP on cells having the mitochondrial A3243G mutation was evaluated by WST assay. Both a mitochondrial DNA mutated cell line and a normal cell line were inoculated at 1×10^3 cells/well to 96-well plates (Thermo Fisher Scientific), cultured for 24 hours, and then treated with CCC020-TPP (final concentration: 0, 0.1, 1, 10, 20, and 50 μM). The cells were further cultured for 5 days and then morphologically observed under optical microscope IX71 (OLYMPUS, Tokyo, Japan). Then, cell survival rates were calculated using Cell counting kit-8 (DOJINDO, Kumamoto, Japan) according to the instruction manual. DMSO (FUJIFILM Wako Pure Chemical Corp.) (final concentration: 1%) was added as a control to cells.
(§5) IC50 was calculated according to the following expression:
(§6) IC50=10(LOG(A/B)×(50−C)/(D−C)+LOG(B)) • A: higher concentration across the concentration at the cell survival rate of 50% • B: lower concentration across the concentration at the cell survival rate of 50% • C: inhibition rate at the lower concentration across the concentration at the cell survival rate of 50% • D: inhibition rate at the higher concentration across the concentration at the cell survival rate of 50%

[5] = test system: HeEB1 (HeLamtHeLa) cells; assay: as above; assay type: cell-based, human; settings: 5 days
Description: as §4, §5, §6

[6] = test system: 3243G Low cells; assay: as above; assay type: cell-based, human; settings: 5 days
Description: as §4, §5, §6

[7] = test system: HeLa cells; assay: WST cell proliferation assay of library compounds; assay type: cell-based; settings: Homo sapiens, 120 h, 5 days
Description: (§7) This compound can recognize the T4216C mutation of mitochondrial ND1 gene, and a uterine cervical cancer cell line C33A has this mutation. Cell proliferation assay with wild-type HeLa cells, which is also a uterine cervical cancer cell line, was conducted in the same manner as in Example 1. 1000 cells were inoculated to a 96-well plate, and CCC1283-TPP was administered at 0.5, 1, 5, 10, and 20 μM. 5 days later, WST assay was conducted.
as §7, with “CCCh531-TPP” for “CCC1283-TPP”
(§8) Compound CCCh560-TPP with a decacyclic structure targeting the A8860G polymorphism of mitochondrial gene ATP6 found in human populations, not acquired mitochondrial mutations in somatic cells, was studied for whether the suppression of cell proliferation was also found by 5-day treatment with the compound for the mitochondrial DNA polymorphism in cancer cell lines C33A, HeLa, Siha, Caski, and ME180 having this polymorphism in homoplasmy and human nontumor skin-derived fibroblast HDF cells. For this purpose, cell proliferation assay was conducted in the same manner as in Example 1. 1000 cells were inoculated to a 96-well plate, and CCCh560-TPP was administered at 0.5, 1, 5, 10, and 20 μM. 5 days later, WST assay was conducted.

[8] = test system: C33A; assay: WST cell proliferation assay of library compounds; assay type: cell-based; settings: Homo sapiens, C-33-A, 120 h, 5 days
Description: as §7
as §7, with “CCCh531-TPP” for “CCC1283-TPP”
as §8

[9] = test system: HDF (human skin fibroblasts); assay: WST cell proliferation assay of library compounds; assay type: cell-based; settings: 5 days
Excerpt: as §8

[10] = test system: Caski; assay: WST cell proliferation assay of library compounds; assay type: cell-based; settings: Homo sapiens, Ca-Ski, 120 h, 5 days
Excerpt: as §8

[11] = test system: ME180; assay: WST cell proliferation assay of library compounds; assay type: cell-based; settings: Homo sapiens, ME-180, 120 h; ME180, 5 days
Excerpt: as §8

[12] = test system: Siha; assay: WST cell proliferation assay of library compounds; assay type: cell-based; settings: Homo sapiens, 120 h, 5 days
Excerpt: as §8

SMILES | expression of P21, BAX and MCL1 [1] | expression of antiapoptosis-related gene MCL1 [2] | expression of cell cycle arrest-related gene P21 [2] | expression of proapoptosis-related gene BAX [2] | cleaved caspase-3-positive cells (apoptosis) [3] | cells with fragmentation of the nucleus ([3]; DAPI) | suppression of cell proliferation (WST) ([4]; 0.1-50 μM) | cell morphology under optical microscope [4] | suppression of cell proliferation (WST) ([5]; 0.1-50 μM) | cell morphology under optical microscope [5] | suppression of cell proliferation (WST) ([6]; 0.1-50 μM) | cell morphology under optical microscope [6] | IC50 [7] | IC50 [8] | suppression of proliferation (WST) ([9]; 0.5-20 μM) | IC50 (WST) [9] | IC50 [10] | IC50 [11] | IC50 [12]
CN(C)CCCNC(=O)CCNC(=O)c1cc(NC(=O)c2cc(NC(=O)CCNC(=O)c3nc(NC(=O)c4nc(NC(=O)c5nc(NC(=O)CCNC(=O)CCCC[P+](c6ccccc6)(c6ccccc6)c6ccccc6)cn5C)cn4C)cn3C)cn2C)cn1C [CCC020-TPP] | no change in expression was found | significantly decreased | significantly increased | significantly increased | approximately half | approximately 60% | cell proliferation suppressive effect was markedly found | cells that seemed to undergo apoptosis were markedly observed | cell proliferation was not suppressed | no morphological change in cells was found | cell proliferation suppressive effect was markedly found | no morphological change in cells was found | – | – | – | – | – | – | –
CN(C)CCCNC(=O)CCNC(=O)c1cc(NC(=O)c2cc(NC(=O)CCNC(=O)c3nc(NC(=O)c4cc(NC(=O)c5nc(NC(=O)CCCNC(=O)c6cc(NC(=O)c7nc(NC(=O)CCNC(=O)c8nc(NC(=O)c9nc(NC(=O)c%10nc(NC(=O)CCNC(=O)CCCC[P+](c%11ccccc%11)(c%11ccccc%11)c%11ccccc%11)cn%10C)cn9C)cn8C)cn7C)cn6C)cn5C)cn4C)cn3C)cn2C)cn1C [CCCh560-TPP] | – | – | – | – | – | – | – | – | – | – | – | – | 7.75 µM | 1.65 µM | tendency to suppress the proliferation | incalculable | 5.5 µM | 3.24 µM | 12.6 µM

From patent US20220193241A1, “AGENT TARGETING DOUBLE-MEMBRANE ORGANELLE DNA” (CHIBA-PREFECTURE, priority 2019, published 2022)
